How the values were obtained:
[1] = system: weed plants such as Sinapis alba, Chrysanthemum segetum, Avena sativa, Stellaria media, Echinochloa crus-galli, Lolium multiflorum, Setaria viridis, Abutilon …; test: Pre-emergence effect on weeds (greenhouse pot test, visual scoring); type: in vivo; settings: applied pre-emergence at a rate of 0.3 kg or less of active substance per hectare; scored after 3 to 4 weeks in comparison to untreated controls
[2] = system: weed plants such as Sinapis alba, Echinochloa crus-galli, Lolium multiflorum, Chrysanthemum segetum, Setaria viridis, Abutilon theophrasti, Amaranthus …; test: Post-emergence effect on weeds (greenhouse pot test, visual scoring); type: in vivo; settings: applied post-emergence (three-leaf stage) at a rate of 0.3 kg or less of active substance per hectare; scored after about 3 to 4 weeks in comparison to untreated controls

| Compound | herbicidal action against weed plants (visual scoring of plant damage or emergence damage) [1] | herbicidal action against weed plants (effect scored visually) [2] |
| --- | --- | --- |
| CCCOc1cccc(I)c1S(=O)(=O)NC(=O)n1nc(SCC)n(C)c1=O [Compound 1.237] | very good herbidical action | very good herbicidal action |
| CCCOc1cccc(I)c1S(=O)(=O)NC(=O)n1nc(OC)n(C2CC2)c1=O [Compound 1.238] | very good herbidical action | very good herbicidal action |
| CCCOc1cccc(I)c1S(=O)(=O)NC(=O)n1nc(OCC)n(C2CC2)c1=O [Compound 1.241] | very good herbidical action | very good herbicidal action |
| CCCOc1cccc(I)c1S(=O)(=O)NC(=O)n1nc(OCCC)n(C2CC2)c1=O [Compound 1.244] | very good herbidical action | very good herbicidal action |
| COc1nn(C(=O)NS(=O)(=O)c2c(I)cccc2OC(C)C)c(=O)n1C [Compound 1.251] | very good herbidical action | very good herbicidal action |
| CCOc1nn(C(=O)NS(=O)(=O)c2c(I)cccc2OC(C)C)c(=O)n1C [Compound 1.254] | very good herbidical action | very good herbicidal action |
| CCCOc1nn(C(=O)NS(=O)(=O)c2c(I)cccc2OC(C)C)c(=O)n1C [Compound 1.255] | very good herbidical action | very good herbicidal action |
| CC(C)Oc1cccc(I)c1S(=O)(=O)NC(=O)n1nc(OC(C)C)n(C)c1=O [Compound 1.256] | very good herbidical action | very good herbicidal action |
| COc1nn(C(=O)NS(=O)(=O)c2c(I)cccc2OC(C)C)c(=O)n1C1CC1 [Compound 1.258] | very good herbidical action | very good herbicidal action |
| CCOc1nn(C(=O)NS(=O)(=O)c2c(I)cccc2OC(C)C)c(=O)n1C1CC1 [Compound 1.261] | very good herbidical action | very good herbicidal action |
| CCCOc1nn(C(=O)NS(=O)(=O)c2c(I)cccc2OC(C)C)c(=O)n1C1CC1 [Compound 1.264] | very good herbidical action | very good herbicidal action |
| CCCCOc1cccc(I)c1S(=O)(=O)NC(=O)n1nc(OC)n(C)c1=O [Compound 1.273] | very good herbidical action | very good herbicidal action |
| CCCCOc1cccc(I)c1S(=O)(=O)NC(=O)n1nc(OCC)n(C)c1=O [Compound 1.274] | very good herbidical action | very good herbicidal action |
| CCCCOc1cccc(I)c1S(=O)(=O)NC(=O)n1nc(OCCC)n(C)c1=O [Compound 1.275] | very good herbidical action | very good herbicidal action |
| CCCCOc1cccc(I)c1S(=O)(=O)NC(=O)n1nc(OC(C)C)n(C)c1=O [Compound 1.276] | very good herbidical action | very good herbicidal action |
| CCCCOc1cccc(I)c1S(=O)(=O)NC(=O)n1nc(OC)n(C2CC2)c1=O [Compound 1.278] | very good herbidical action | very good herbicidal action |
| CCCCOc1cccc(I)c1S(=O)(=O)NC(=O)n1nc(OCC)n(C2CC2)c1=O [Compound 1.279] | very good herbidical action | very good herbicidal action |
| CCCCOc1cccc(I)c1S(=O)(=O)NC(=O)n1nc(OCCC)n(C2CC2)c1=O [Compound 1.280] | very good herbidical action | very good herbicidal action |
| CCC(C)Oc1cccc(I)c1S(=O)(=O)NC(=O)n1nc(OC)n(C)c1=O (stereo not shown) [Compound 1.281] | very good herbidical action | very good herbicidal action |

| Compound | herbicidal action against weed plants (visual scoring of plant damage or emergence damage) [1] | herbicidal action against weed plants (effect scored visually) [2] |
| --- | --- | --- |
| CCC(C)Oc1cccc(I)c1S(=O)(=O)NC(=O)n1nc(OC)n(C2CC2)c1=O (stereo not shown) [Compound 1.286] | very good herbidical action | very good herbicidal action |
| COc1nn(C(=O)NS(=O)(=O)c2c(I)cccc2OCC(C)C)c(=O)n1C [Compound 1.289] | very good herbidical action | very good herbicidal action |
| CCOc1nn(C(=O)NS(=O)(=O)c2c(I)cccc2OCC(C)C)c(=O)n1C [Compound 1.290] | very good herbidical action | very good herbicidal action |
| COc1nn(C(=O)NS(=O)(=O)c2c(I)cccc2OCC(C)C)c(=O)n1C1CC1 [Compound 1.294] | very good herbidical action | very good herbicidal action |
| CCOc1nn(C(=O)NS(=O)(=O)c2c(I)cccc2OCC(C)C)c(=O)n1C1CC1 [Compound 1.295] | very good herbidical action | very good herbicidal action |
| COc1nn(C(=O)NS(=O)(=O)c2c(I)cccc2OCC2CC2)c(=O)n1C [Compound 1.346] | very good herbidical action | very good herbicidal action |
| CCOc1nn(C(=O)NS(=O)(=O)c2c(I)cccc2OCC2CC2)c(=O)n1C [Compound 1.349] | very good herbidical action | very good herbicidal action |
| CCCOc1nn(C(=O)NS(=O)(=O)c2c(I)cccc2OCC2CC2)c(=O)n1C [Compound 1.350] | very good herbidical action | very good herbicidal action |
| COc1nn(C(=O)NS(=O)(=O)c2c(I)cccc2OCC2CC2)c(=O)n1C1CC1 [Compound 1.353] | very good herbidical action | very good herbicidal action |
| CCOc1nn(C(=O)NS(=O)(=O)c2c(I)cccc2OCC2CC2)c(=O)n1C1CC1 [Compound 1.356] | very good herbidical action | very good herbicidal action |
| CCCOc1nn(C(=O)NS(=O)(=O)c2c(I)cccc2OCC2CC2)c(=O)n1C1CC1 [Compound 1.359] | very good herbidical action | very good herbicidal action |
| COc1nn(C(=O)NS(=O)(=O)c2c(I)cccc2OC(F)(F)F)c(=O)n1C [Compound 1.440] | very good herbidical action | very good herbicidal action |
| CCOc1nn(C(=O)NS(=O)(=O)c2c(I)cccc2OC(F)(F)F)c(=O)n1C [Compound 1.443] | very good herbidical action | very good herbicidal action |
| CCCOc1nn(C(=O)NS(=O)(=O)c2c(I)cccc2OC(F)(F)F)c(=O)n1C [Compound 1.444] | very good herbidical action | very good herbicidal action |
| COc1nn(C(=O)NS(=O)(=O)c2c(I)cccc2OC(F)(F)F)c(=O)n1C1CC1 [Compound 1.447] | very good herbidical action | very good herbicidal action |
| CCOc1nn(C(=O)NS(=O)(=O)c2c(I)cccc2OC(F)(F)F)c(=O)n1C1CC1 [Compound 1.450] | very good herbidical action | very good herbicidal action |
| CCCOc1nn(C(=O)NS(=O)(=O)c2c(I)cccc2OC(F)(F)F)c(=O)n1C1CC1 [Compound 1.453] | very good herbidical action | very good herbicidal action |
| COc1nn(C(=O)NS(=O)(=O)c2c(I)cccc2OC(F)F)c(=O)n1C [Compound 1.460] | very good herbidical action | very good herbicidal action |
| CCOc1nn(C(=O)NS(=O)(=O)c2c(I)cccc2OC(F)F)c(=O)n1C [Compound 1.463] | very good herbidical action | very good herbicidal action |
